Two molecules from article PMC12436592 (Nature Communications, 2025) can be followed below.

For one assay, the target named is T1, hP2X7R (Homo sapiens, UniProt Q99572).
T1 sequence (Q99572 1-595): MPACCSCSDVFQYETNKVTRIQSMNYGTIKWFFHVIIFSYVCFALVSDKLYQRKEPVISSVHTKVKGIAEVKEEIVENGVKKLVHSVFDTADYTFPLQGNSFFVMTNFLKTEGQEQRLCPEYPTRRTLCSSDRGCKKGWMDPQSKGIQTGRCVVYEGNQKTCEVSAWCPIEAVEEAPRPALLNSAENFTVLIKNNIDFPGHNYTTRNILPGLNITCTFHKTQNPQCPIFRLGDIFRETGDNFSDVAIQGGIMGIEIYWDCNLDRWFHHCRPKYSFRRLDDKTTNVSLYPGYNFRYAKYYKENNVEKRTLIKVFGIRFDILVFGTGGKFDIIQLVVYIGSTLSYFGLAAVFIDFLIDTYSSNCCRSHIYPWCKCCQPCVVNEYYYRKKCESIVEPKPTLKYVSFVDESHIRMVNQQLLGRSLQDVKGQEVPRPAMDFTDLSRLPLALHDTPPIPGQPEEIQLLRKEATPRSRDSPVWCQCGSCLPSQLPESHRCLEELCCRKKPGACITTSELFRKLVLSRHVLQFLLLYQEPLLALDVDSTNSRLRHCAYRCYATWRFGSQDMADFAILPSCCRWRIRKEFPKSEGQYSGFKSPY
Kind of assay: Calcium influx assay, 1321N1 astrocytoma cells, BzATP EC80. It counts as cell-based. Conditions: for IC50: 1321N1 cells, BzATP EC80, mean ± SD. Further details: expressed in transfected cells. The source says: For 1321N1 astrocytoma cells stably expressing the human, rat, or mouse P2X7Rs, or hP2X2Rs or hP2X4Rs, the fluorescent Ca^2+-chelating dye Fluo-4 acetoxymethyl ester (Fluo-4 AM, Thermo Fisher Scientific, Dreieich, Germany) was used. For 1321N1 astrocytoma cell lines recombinantly expressing the hP2X1Rs or hP2X3Rs, the FLIPR® Calcium 5 Assay Kit (Molecular Devices, San José, CA, USA) was employed. Human, rat, and mouse P2X7Rs as well as hP2X1Rs, hP2X2Rs, hP2X3Rs, and hP2X4Rs were recombinantly expressed in 1321N1 astrocytoma cells using a retroviral expression system[72]–[74].
(§1) On the first day, 45,000 cells per well (30,000 cells for the human P2X3 receptor-expressing cells) were seeded into a 96-well polystyrene microplate with a black, flat bottom in a final volume of 200 µL. After overnight incubation at 37 °C and 10% CO2 (5% CO2 for the human P2X3R-expressing cell line), the medium was removed by inverting the plate, and the cells were loaded with dye solution. Hanks’ balanced salt solution (HBSS, Thermo Fisher Scientific, Dreieich, Germany) was used as the assay buffer for human P2X1R, P2X2R, P2X3R, and P2X4R. For the P2X7Rs, a different assay buffer was used: 150 mM sodium-glutamate, 5 mM KCl, 0.5 mM CaCl2, 0.1 mM MgCl2, 10 mM D-glucose, 25 mM 4-(2-hydroxyethyl)-1-piperazineethanesulfonic acid (HEPES), pH 7.4. The dye solutions were freshly prepared. The Fluo-4 AM solution contained 3 µM of Fluo-4 AM in assay buffer and 1% of the non-ionic detergent Pluronic F-127® (Sigma-Aldrich, Taufkirchen, Germany). The Calcium 5 dye, used for hP2X1Rs and hP2X3Rs, was prepared in HBSS buffer. Cells were loaded with Fluo-4 AM and incubated for 1 h at room temperature with gentle shaking (100 rpm), while those loaded with the Calcium 5 dye were incubated for 1 h at 37 °C. After incubation, the dye solution was carefully removed from the plate, and buffer was added to the cells for the evaluation of agonists. […] The agonist solution was prepared in a 96-well transparent plate, obtaining the respective EC80 values. As a control, assay buffer without the test compound was used. After 30 min of incubation with antagonist, the plates were measured using a fluorescence imaging plate reader NOVOstar (BMG Labtech GmbH, Offenburg, Germany) at an excitation wavelength of 485 nm and an emission wavelength of 520 nm, for 30 s at 0.4 s intervals. Calcium influx measurements were then initiated by automatic addition of 20 µL of agonist solution by the plate reader’s pipetting device. Data were analyzed using Microsoft Excel and GraphPad Prism (Version 8.0, San Diego, CA, USA). EC80 and IC50 values were calculated using nonlinear regression with a sigmoidal dose-response equation.

The subject of the next assay is T2, hP2X2R.
T2 construct: expressed in transfected cells
As to the kind of experiment: Calcium influx assay, 1321N1 astrocytoma cells, ATP EC80. The class given is cell-based, human. Conditions: 10 μM antagonist, ATP 1000 nM.
Text: (§2) . For 1321N1 astrocytoma cells stably expressing the human, rat, or mouse P2X7Rs, or hP2X2Rs or hP2X4Rs, the fluorescent Ca^2+-chelating dye Fluo-4 acetoxymethyl ester (Fluo-4 AM, Thermo Fisher Scientific, Dreieich, Germany) was used. For 1321N1 astrocytoma cell lines recombinantly expressing the hP2X1Rs or hP2X3Rs, the FLIPR® Calcium 5 Assay Kit (Molecular Devices, San José, CA, USA) was employed. Human, rat, and mouse P2X7Rs as well as hP2X1Rs, hP2X2Rs, hP2X3Rs, and hP2X4Rs were recombinantly expressed in 1321N1 astrocytoma cells using a retroviral expression system[72]–[74].
as §1

In another assay the test system is T3, hP2X4R.
T3 construct: expressed in transfected cells
Described as above. Conditions: 10 μM antagonist, ATP 300 nM. The class given is cell-based, human.
Text: as §2, §1

Another assay concerns the target T4, rP2X7R (Rattus norvegicus, UniProt Q64663).
T4 sequence (Q64663 1-595): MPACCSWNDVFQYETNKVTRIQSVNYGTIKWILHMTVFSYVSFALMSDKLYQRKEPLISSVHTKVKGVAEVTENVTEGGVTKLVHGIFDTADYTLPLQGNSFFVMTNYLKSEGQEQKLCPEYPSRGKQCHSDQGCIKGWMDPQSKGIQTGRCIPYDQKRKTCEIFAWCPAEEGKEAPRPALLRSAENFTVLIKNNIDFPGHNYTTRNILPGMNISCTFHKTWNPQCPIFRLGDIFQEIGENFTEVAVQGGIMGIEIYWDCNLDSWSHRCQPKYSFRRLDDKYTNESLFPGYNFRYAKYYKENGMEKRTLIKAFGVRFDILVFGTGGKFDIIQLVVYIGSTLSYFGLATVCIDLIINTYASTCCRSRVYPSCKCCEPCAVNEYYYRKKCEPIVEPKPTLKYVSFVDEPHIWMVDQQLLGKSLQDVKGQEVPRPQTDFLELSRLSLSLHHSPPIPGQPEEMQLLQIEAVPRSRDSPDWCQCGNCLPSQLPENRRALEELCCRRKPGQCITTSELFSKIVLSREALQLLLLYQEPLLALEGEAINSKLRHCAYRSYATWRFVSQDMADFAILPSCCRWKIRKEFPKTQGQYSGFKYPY
As to the kind of experiment: Calcium influx assay, 1321N1 astrocytoma cells, BzATP EC80. The class given is cell-based. Further details: expressed in transfected cells. Conditions: for IC50: 1321N1 cells, BzATP EC80, mean ± SD.
Text: as §2, §1

Where “and” joins values, the source holds several entries; their conditions need not be identical. Equal values may be shown once.

The IC50 is the concentration needed to halve the response being measured. For `O=C(NNc1ccccc1Cl)C12CC3CC(CC(C3)C1)C2` [UB-ALT-P30, reference compound], the IC50 was 17.8 nM and 18 nM on hP2X7R; 116 ± 50 nM at rP2X7R. Further, the “normalized calcium signal, hP2X7R IC50 curve” value on hP2X7R (Log(c) M -9, 0.001 µM) was 71.6317 and 73.6475 and 92.6717 and 89.8426 and 81.3931. In the assay with hP2X2R, the “% inhibition ± SD at 10 μM, hP2X2R” value turned out to be 29 ± 7%. Further, the “% inhibition ± SD at 10 μM, hP2X4R” value in the assay on hP2X4R is listed as 44 ± 14%. In addition, the activity at 0.03 µM on rP2X7R (1321-N1, Log(c) M -7.52288, read-out: normalized calcium signal, rP2X7R IC50 curve) worked out at 94.8%. Also, the activity at 0.01 µM at rP2X7R (1321-N1, Log(c) M -8, read-out: normalized calcium signal, rP2X7R IC50 curve) came to 98.3%. Also, the “normalized calcium signal, rP2X7R IC50 curve” value at rP2X7R (Log(c) M -7.52288, 0.03 µM) is 96.1595 and 98.0559 and 102.654 and 103.189; on rP2X7R (Log(c) M -8, 0.01 µM), 98.7308 and 105.449 and 107.576 and 114.231 and 110.835; on rP2X7R (Log(c) M -8.52288, 0.003 µM), 87.0316 and 95.5173 and 98.7016 and 89.3009 and 111.685 and 110.916 and 108.743.

For `CC12CC3CC1(C)C1(C)CC3(C(=O)NNc3ccccc3Cl)CC21C` [UB-MBX-46], the activity at 0.0003 µM came to 82.4% on hP2X7R (1321-N1, Log(c) M -9.52288, read-out: normalized calcium signal, hP2X7R IC50 curve) and 92.1% on rP2X7R (1321-N1, Log(c) M -9.52288, read-out: normalized calcium signal, rP2X7R IC50 curve). In addition, the activity at 0.0001 µM on hP2X7R (1321-N1, Log(c) M -10, read-out: normalized calcium signal, hP2X7R IC50 curve) turned out to be 110%. Further, the activity at 30 pM on hP2X7R (1321-N1, Log(c) M -10.5229, read-out: normalized calcium signal, hP2X7R IC50 curve) was 100%. For the same molecule, the IC50 at hP2X7R stood at 0.514 ± 0.035 nM; on rP2X7R it was 40.6 ± 10.4 nM. Besides, the “normalized calcium signal, hP2X7R IC50 curve” value at hP2X7R (Log(c) M -9.52288, 0.0003 µM) was 83.2395 and 75.8405 and 85.4678 and 91.9881; at hP2X7R (Log(c) M -10, 0.0001 µM), 91.6497 and 103.346 and 103.977. Further, the “times more potent than UB-ALT-P30 on the hP2X7R” value on hP2X7R (calcium influx) is listed as ~ 35 x. In addition, the “% inhibition ± SD at 10 μM, hP2X2R” value with hP2X2R is listed as 15 ± 9%. Besides, in the assay on hP2X4R, the “% inhibition ± SD at 10 μM, hP2X4R” value is on record as 41 ± 19%. Moreover, the activity at 0.003 µM on rP2X7R (1321-N1, Log(c) M -8.52288, read-out: normalized calcium signal, rP2X7R IC50 curve) is 92.9%. Besides, the activity at 0.001 µM on rP2X7R (1321-N1, Log(c) M -9, read-out: normalized calcium signal, rP2X7R IC50 curve) stood at 83%. Also, the “normalized calcium signal, rP2X7R IC50 curve” value at rP2X7R (Log(c) M -8, 0.01 µM) is 92.0673 and 92.0463 and 93.4263 and 100.969 and 74.9729 and 70.4733; at rP2X7R (Log(c) M -8.52288, 0.003 µM), 98.336 and 95.4706 and 107.675 and 91.9395; at rP2X7R (Log(c) M -9, 0.001 µM), 97.4351. The “times more potent than UB-ALT-P30 on the rP2X7R” value on rP2X7R (calcium influx) was ~ 3 x.
